Here are results for 2 molecules from patent publication US20200368174A1, “PARTICLES FOR TARGETED DELIVERY OF ACTIVE AGENTS INTO ADIPOSE STROMAL CELLS” (Texas Tech University System, priority 2018, published 2020).

The nature of data set [1]: Aqueous solubility, 1 mg R in 1 mL 1×PBS. In kind it is physicochemical. The note with it: visual observation.
Data set [2] can be described thus: Chemical stability of R by HPLC under light or dark. The format is physicochemical.
A short description of data set [3]: In vitro release, dialysis method (Example 1). In kind it is physicochemical. The note with it: for R released from dialysis bag: bag containing 0.5 mg R. As to the method: The dissolution medium was composed of 1×PBS and methanol (80:20, v/v). […] See Sun et al., Colloids Surf B Biointerfaces, 113 (2014) 15-24.
The release study was conducted in the dark to prevent light-induced R degradation. To minimize the effect of R stability, the dissolution medium was changed completely each hour for the first 2 hr, and every 2 hr for the rest 8 hr.

A further data set has as its system 3T3-L1 white adipocytes. Nature of the data set: Browning: marker mRNA by Real Time-PCR in differentiating adipocytes, basal or ISO-stimulated. In kind it is cell-based, Murine. As to the method: The cells were then stimulated with isoproterenol (ISO) for 6 hr. Relative mRNA expression of Uncoupling protein 1 (UCP-1), PPARγ, PPARγ co-activator 1α (PGC-1α), and PR-domain-containing 16 (PRDM16) were analyzed by semi-quantitative Real Time-PCR. Data=mean±SEM (n=3). E, Ethanol containing vehicle control for native R. R, rosiglitazone, a positive control. Letters of a-c or a′-c′ on top of the bars define differences among various forms of R under either basal or ISO-stimulated conditions, respectively. Different letters indicate significant differences among various R. *, p<0.05; **, p<0.01; ***, p<0.001 compared to their controls.
The cells were then stimulated with ISO for 6 hr. Relative mRNA expression of white marker insulin-like growth factor-binding protein 3 (IGFBP3) (FIG. 9A) and beige marker CD137 and transmembrane protein 26 (Tmem26) (FIG. 9B) were analyzed by semi-quantitative reverse transcription polymerase chain reaction (RT-PCR). Data=mean±SEM (n=3). E, Ethanol containing vehicle control for native R. R, rosiglitazone, a positive control. Letters of a-c or a′-c′ on top of the bars define differences among various forms of R under both basal and ISO-stimulated conditions, respectively. Different letters indicate significant differences among various R. *, p<0.05; **, p<0.01 compared to the controls.
Total RNA was extracted, cDNA was synthesized, and real-time PCR was performed using an ABI 7300HT instrument.
The hallmark of beige adipocytes is induced thermogenesis in response to stimuli, such as […] agonist ISO.

Data set [4] is described as follows: In vitro release, dialysis method (Example 2). The format is physicochemical. As to the method: The mean particle size, PI and zeta potential were measured every day. The in vitro release behavior was measured in the dissolution medium, which was composed of 1× phosphate buffer saline (1×PBS, pH 7.4) and methanol (80:20, v/v), using a dialysis method. […] R released into the medium at each time point was determined using the Shimadzu high-performance liquid chromatography (HPLC) system (Shimadzu Corporation, Kyoto, Japan).

In data set [5] the test system is obese C57BL/6J mice. The experiment in a line: Anti-obesity study: body weight, composition, food intake, fat pads, adipocyte size. The format is in vivo. As for the experimental part: (§1) Sixty male 6-week old C57BL/6J mice from Jackson's lab were fed with a high-fat diet (HFD) (45% energy from fat, Research Diets, Inc, D12451) for 9 weeks starting from week 1 (age 7 weeks old) to week 9 (age 15 weeks old). The mice were allowed to drink and eat the HFD ad libitum and maintained at 22-24° C., 45% relative humidity and a daily 12/12 hour light/dark cycle. […] Treatments were intravenously injected into mice via tail veins twice a week. Food intake and body weight were recorded weekly. Glucose tolerance test (GTT) was conducted at week 8 and the insulin tolerance test (ITT) and cold tolerance test were conducted at week 9.
After 9 weeks, mice were fasted overnight and humanely sacrificed. Blood was collected from the abdominal vein and brain, liver, lung, spleen, kidneys, skeletal muscle, gonadal white adipose tissue (G-WAT), inguinal WAT (I-WAT), retroperitoneal WAT (RP-WAT), and BAT of each mouse. Each tissue was cut into 3 pieces to be immediately frozen in liquid nitrogen followed by storage at −80° C. and fixed in 4% paraformaldehyde (for histology).
Body composition of mice was performed at week 0, 2, 4 and 5 of treatments using an EchoMRI™ Whole Body Composition Analyzer (MRI system) (EchoMRI LLC, Houston, Tex., USA).
H&E staining of I-WAT was conducted by the Department of Pathology of Texas Tech University Health Sciences Center. Briefly, the paraffin-embedded I-WAT sections (5 μm) were deparaffinized and rehydrated with xylene and ethanol. Sections were cleaned with water to skim reagent residue. Excess water was then blotted, the sections were incubated with Hematoxylin for 4 minutes, and washed several times using water. The sections were stained with Eosin and dehydrated. Finally, the sections were cleaned and covered with xylene-based mounting medium.

The subject of data set [6] is obese C57BL/6J mice. Nature of the data set: Fasting insulin, glucose, HOMA-IR, leptin, GTT and ITT. The note with it: mouse, in vivo. As for the experimental part: as §1
GTT and ITT were performed at end of treatments to assess whole-body glucose and insulin tolerance. […] Blood was collected and blood glucose concentrations were measured with a One Touch® glucometer from tail vein blood at 0, 15, 30, 60, 90, and 120 minutes post-injection. […] Blood glucose concentrations were measured as above at 0, 15, 30, 45, and 60 minutes post-injection. The area under the curve (AUC) was calculated. Blood glucose concentrations were plotted against time and the area under curve was calculated by following formula: […]
Fasting plasma glucose concentrations were measured by One Touch® glucometer. Fasting insulin concentrations were determined by an insulin Millipore® ELISA commercial kit (Millipore, Billerica, Mass., USA). […]

The conditions of data set [7]: cited from earlier work.
Data set [8] deals with primary stromal stem/progenitor cells derived from inguinal WAT (iWAT). The note with it: 10 μM, brown-like differentiation; cited from earlier work.
The target in data set [9] is decorin lacking the glycanation site (ΔDCN), on ΔDCN-transduced 3T3-L1 cells (ΔDCN cells). The experiment in a line: cell-based or functional assay.
Data set [10] concerns the target endogenous surface ΔDCN receptor of mouse adipose stromal cells (ASC) in C57BL/6J white adipose tissue stromal vascular cells (mouse). The experiment in a line: cell-based or functional assay.
Data set [11] concerns the target decorin lacking the glycanation site (ΔDCN), on ΔDCN-transduced 3T3-L1 cells (ΔDCN cells). The experiment in a line: flow cytometry of ΔDCN cells incubated 2 h at 37° C. with DiD-labelled nanoparticles. On the technique in general: In flow cytometry, cells or beads pass a laser one at a time.

Where no end group is shown, it is not given here. Side-chain parts run from the residue outwards. The star is where a group is joined. DSPE = CCCCCCCCCCCCCCCCCC(=O)OC[C@H](COP(=O)(O)OCCN*)OC(=O)CCCCCCCCCCCCCCCCC; MAL = maleimide

For `Oc1ccc(/C=C/c2cc(O)cc(O)c2)cc1` [native R, 3,5,4′-trihydroxy-trans-stilbene], the “dissolution of 1 mg in 1 mL of 1×PBS” value in data set [1] is listed as “hardly dissolved”. Moreover, the R degradation rate is reported as 17% in data set [2] (4° C., dark, 7 days); 48% in data set [2] (22° C., dark, 7 days); 52% in data set [2] (37° C., dark, 7 days); 90% in [2] (37° C., under the light, 6 days). Further, the R degraded is 40% in [2] (pH 7.4, 4° C., under the light, 7 days); 60% in data set [2] (pH 7.4, 22° C., under the light, 7 days); 96% in [2] (pH 7.4, 37° C., under the light, 7 days). Also, the release behavior result in [3] (1×PBS:methanol 80:20, dark) was “burst release”. In addition, the “R released from dialysis bag” value is “about 0.02 mg” in data set [3] (2-4 hr period), “about 0.17 mg” in [3] (after 1 hr) and “more than 0.13 mg” in [4] (first two hours). Also, the “accumulative released R mass” value in [3] (10 hr period) is reported as “reached a plateau”. Further, the “Cox4a mRNA” value in the data set with 3T3-L1 white adipocytes (20 μM, ISO stimulated) is given as “increased”. Further, the “CD137 mRNA expression” value in the data set on 3T3-L1 white adipocytes (ISO stimulated conditions) was “dose-dependently increased”. The Tmem26 expression result in the data set with 3T3-L1 white adipocytes (ISO stimulation) is listed as “increased”. The “PRDM16 mRNA expression” value with 3T3-L1 white adipocytes (basal conditions) is recorded as “did not change”. Besides, the “Tmem26 mRNA expression” value in the data set on 3T3-L1 white adipocytes (basal conditions) is listed as “decreased”. In addition, the “IGFBP3 mRNA expression compared to controls” value with 3T3-L1 white adipocytes (both basal and ISO stimulated conditions) is reported as “dose-dependently decreased”. Also, the R release result in data set [4] (after eight hours) is given as “undetected”. Moreover, the “released R as share of total R” value in data set [4] (first two hours) is reported as “around 35%”. Moreover, in data set [4] (following six hours), the “mass of R released at every time point” value is given as “lower than 0.02 mg”. In addition, the “diameter of adipocytes in I-WAT” value in the data set on obese C57BL/6J mice [5] (H&E sections, after 5 weeks) is recorded as “around 100 μm”. Moreover, in the data set on obese C57BL/6J mice [5] (HFD mice, 15 mg/kg, IV twice a week, 5 weeks, vs saline), the body weight entry is recorded as “no significant reduction”. Moreover, the “percentage of body fat (% body fat)” value in the data set on obese C57BL/6J mice [5] (HFD mice, 15 mg/kg, IV twice a week, 5 weeks, vs saline, listed as Free R, 15 mg/kg) is listed as “slightly lower”; in the data set with obese C57BL/6J mice [5] (HFD mice, 15 mg/kg, IV twice a week, 5 weeks, vs saline, listed as free R, 15 mg/kg) it was “no significant reduction”. Moreover, in the data set on obese C57BL/6J mice [5] (compared with saline group), the body weight gain result is listed as “decrease”. In addition, the “adipocyte size / area of cells in I-WAT” value in the data set with obese C57BL/6J mice [5] (vs saline) is on record as “no significant reduction”. In addition, the “fasting blood insulin and glucose concentrations compared to saline” value in the data set on obese C57BL/6J mice [6] is “reduced”. For the same molecule, in [7], the “solubility of R in water and physiological fluid” value is listed as “less than 0.1 mg/mL”. Also, in data set [8], the “mRNA expression of UCP1 and beige marker CD137 and Tmem26” value was “enhanced”.

B1: ligand-coated Rnano (L-Rnano): resveratrol-loaded lipid nanoparticle carrying DSPE-PEG5000-peptide, the linear ASC-targeting peptide … (SEQ ID NO: 2), on its … (peptide)
peptide: GSWKYWFGEGGC([MAL-PEG5000-DSPE])
modifications: also: displayed in many copies on lipid nanoparticle, copy number not given here
Molecule B1 came in with a ΔDCN cells R content at 4° C. for 4 hours, against free R and Rnano in [9] of 2 fold. Besides, in data set [10], the DiD+ ASC after intravenous injection, DiD-L-Rnano mouse against DiD-Rnano treatment (flow cytometry; depot not given, I-WAT by context) was 9.3 fold; the DiD+ cell ratio among the ASC population after intravenous injection of DiD-L-Rnano (flow cytometry; depot not given, I-WAT by context) came to 31.7%; the cellular R content of SVCs at 4° C., against free R-treated SVF cells was found to be 2.8 fold; the cellular R content of SVCs at 37° C., against free R-treated SVF cells was 2.5 fold. In data set [10], this molecule displayed a percentage of DiD+ ASC in G-WAT after intravenous injection, DiD-L-Rnano mouse against DiD-Rnano mouse (flow cytometry) of 3.5 fold and a percentage of DiD+ ASC in RP-WAT after intravenous injection, DiD-L-Rnano mouse against DiD-Rnano mouse (flow cytometry) of 4.8 fold. Moreover, in [11], the fold DiD positive rate of ΔDCN cells against DiD-labeled Rnano came to 5 fold.
